Laboratory results published in ChEMBL document CHEMBL4304806, “Triazolo-azepine Inhibitors of γ-Secretase and Their Methods of Use” (ACS Med Chem Lett, 2019).

What follows are molecules tested against Gamma-secretase (assay: Inhibition of gamma secretase in human H4 cells over expressing human APP695 harboring K595N/M596L Swedish double mutant assessed as reduction in Abeta42 production level after 24 hrs by Alphalisa assay).
Assay type: cell-based

First: Cc1cn(C23CC(Nc4nc5n(n4)CCCC[C@@H]5c4cc(F)cc(Cl)c4)(C2)C3)cn1
Second: Cc1cn(C23CC(Nc4nc5n(n4)CCCC[C@H]5c4cc(F)cc(Cl)c4)(C2)C3)cn1
The IC50 of the first is 1.8-fold lower: 0.008 µM for the first, 0.014 µM for the second. The first is the more potent here.

`Cc1cn(C23CC(Nc4nc5n(n4)CCCC[C@@H]5c4ccc(F)cc4)(C2)C3)cn1` and `Cc1cn(C23CC(Nc4nc5n(n4)CCCC[C@H]5c4ccc(F)cc4)(C2)C3)cn1` are within 1.5-fold of each other in IC50: 0.025 µM for the first, 0.031 µM for the second.

`Cc1cn(C23CC(Nc4nc5n(n4)CCCC[C@H]5c4ccc(Cl)cc4)(C2)C3)cn1` and `Cc1cn(C23CC(Nc4nc5n(n4)CCCC[C@@H]5c4ccc(Cl)cc4)(C2)C3)cn1` are within 1.5-fold of each other in IC50: 0.023 µM for the first, 0.026 µM for the second.

`Cc1cn(C23CCC(Nc4nc5n(n4)CCCC[C@@H]5c4cc(F)cc(Cl)c4)(CC2)CC3)cn1` and `Cc1cn(C23CCC(Nc4nc5n(n4)CCCC[C@H]5c4cc(F)cc(Cl)c4)(CC2)CC3)cn1` are within 1.5-fold of each other in IC50: 0.015 µM for the first, 0.014 µM for the second.

`Cc1cn(C23CCC(Nc4nc5n(n4)CCCC[C@H]5c4ccc(F)c(F)c4)(CC2)CC3)cn1` and `Cc1cn(C23CCC(Nc4nc5n(n4)CCCC[C@@H]5c4ccc(F)c(F)c4)(CC2)CC3)cn1` are within 1.5-fold of each other in IC50: 0.049 µM for the first, 0.039 µM for the second.

Compared with `Cc1cn(C23CC(Nc4nc5n(n4)CCCC[C@@H]5c4ccc(F)c(F)c4)(C2)C3)cn1`, `Cc1cn(C23CC(Nc4nc5n(n4)CCCC[C@H]5c4ccc(F)c(F)c4)(C2)C3)cn1` is 1.6-fold lower in IC50: 0.044 µM for the first, 0.027 µM for the second.

`Cc1cn(C23CC(Nc4nc5n(n4)CCCC[C@@H]5c4cccc(Cl)c4)(C2)C3)cn1` and `Cc1cn(C23CC(Nc4nc5n(n4)CCCC[C@H]5c4cccc(Cl)c4)(C2)C3)cn1` are within 1.5-fold of each other in IC50: 0.015 µM for the first, 0.016 µM for the second.
